# Key:
# Assay type in all cases: in vivo
# [1] = system: field corn (Zea mays L., var. Dekalb 535, CORN); experiment: Pre-emerge test, crop safety; conditions: rated 14 days after application, 0 = no damage, 100 = complete death
# Outline: (§1)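 Plants grown in 10 cm pots of sandy loam mix received acetone-dissolved compounds through a moving flat-fan nozzle. Doses ranged from 15 to 1000 g ai/ha. Pre-emerge pots were seeded one day earlier, post-emerge pots 8–21 days earlier. Fourteen days on, each pot was graded 0–100 for damage.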
# [2] = system: upland rice (Oryza sp., var. Tebonnet, RICE); experiment: Pre-emerge test, crop safety; conditions: rated 14 days after application, 0 = no damage, 100 = complete death
# Outline: as §1
# [3] = system: barnyardgrass (Echinochloa crus-galli, ECHCG); experiment: Pre-emerge test, greenhouse herbicide activity screening; conditions: rated 14 days after application, 0 = no damage, 100 = complete death
# Outline: (§2)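 Visual ratings on a 0-100 scale (0 no damage, 100 all plants dead) were taken at 14 days after treatment. Rates of 15-1000 g ai/ha in acetone, 187 l/ha, were sprayed onto soil one day after planting (pre-emerge) or onto 2-3 leaf plants with 0.25% v/v surfactant (post-emerge).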
# [4] = system: sicklepod (Cassia obtusifolia, CASOB); experiment: as above; conditions: rated 14 days after application, 0 = no damage, 100 = complete death
# Outline: as §2
# [5] = system: ivyleaf morningglory (Ipomoea hederacea, IPOHE); experiment: as above; conditions: rated 14 days after application, 0 = no damage, 100 = complete death
# Outline: as §2
# [6] = system: green foxtail (Setaria viridis, SETVI); experiment: as above; conditions: rated 14 days after application, 0 = no damage, 100 = complete death
# Outline: as §2
# [7] = system: common ragweed (Ambrosia artemisizfolia L., AMBEL); experiment: as above; conditions: rated 14 days after application, 0 = no damage, 100 = complete death
# Outline: as §2
# [8] = system: large crabgrass (Digitaria sanguinalis, DIGSA); experiment: as above; conditions: rated 14 days after application, 0 = no damage, 100 = complete death
# Outline: as §2
# [9] = system: johnsongrass (Sorghum halepense, SORHA); experiment: as above; conditions: rated 14 days after application, 0 = no damage, 100 = complete death
# Outline: as §2
# [10] = system: velvetleaf (Abutilon theophrasti, ABUTH); experiment: as above; conditions: rated 14 days after application, 0 = no damage, 100 = complete death
# Outline: as §2
# [11] = system: lambsquarters (Chenopodium album, CHEAL); experiment: as above; conditions: rated 14 days after application, 0 = no damage, 100 = complete death
# Outline: as §2
# [12] = system: barnyardgrass (Echinochloa crus-galli, ECHCG); experiment: Post-emerge test, greenhouse herbicide activity screening; conditions: post-emerge, 14 days after application, rating scale 0-100
# Outline: (§3)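 Fourteen days after spraying, crop and weed injury was graded visually from 0, no effect, to 100, every plant dead. Test substances were dissolved in acetone and applied at 15–1000 g ai/ha with a flat-fan nozzle. Application was either pre-emergence, one day after sowing, or post-emergence at the 2–3 leaf stage.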
# [13] = system: redroot pigweed (Amaranthus retroflexus, AMARE); experiment: as above; conditions: post-emerge, 14 days after application, rating scale 0-100
# Outline: as §3
# [14] = system: sicklepod (Cassia obtusifolia, CASOB); experiment: as above; conditions: post-emerge, 14 days after application, rating scale 0-100
# Outline: as §3
# [15] = system: ivyleaf morningglory (Ipomoea hederacea, IPOHE); experiment: as above; conditions: post-emerge, 14 days after application, rating scale 0-100
# Outline: as §3
# [16] = system: common ragweed (Ambrosia artemisizfolia L., AMBEL); experiment: as above; conditions: post-emerge, 14 days after application, rating scale 0-100
# Outline: as §3
# [17] = system: large crabgrass (Digitaria sanguinalis, DIGSA); experiment: as above; conditions: post-emerge, 14 days after application, rating scale 0-100
# Outline: as §3
# [18] = system: johnsongrass (Sorghum halepense, SORHA); experiment: as above; conditions: post-emerge, 14 days after application, rating scale 0-100
# Outline: as §3
# [19] = system: velvetleaf (Abutilon theophrasti, ABUTH); experiment: as above; conditions: post-emerge, 14 days after application, rating scale 0-100
# Outline: as §3
# [20] = system: lambsquarters (Chenopodium album, CHEAL); experiment: as above; conditions: post-emerge, 14 days after application, rating scale 0-100
# Outline: as §3
# [21] = system: field corn (Zea mays L., var. Dekalb 535, CORN); experiment: Post-emerge test, crop safety; conditions: post-emerge, 14 days after application, rating scale 0-100
# Outline: as §2
# [22] = system: upland rice (Oryza sp., var. Tebonnet, RICE); experiment: Post-emerge test, crop safety; conditions: post-emerge, 14 days after application, rating scale 0-100
# Outline: as §2
# [23] = system: redroot pigweed (Amaranthus retroflexus, AMARE); experiment: Pre-emerge test, greenhouse herbicide activity screening; conditions: rated 14 days after application, 0 = no damage, 100 = complete death
# Outline: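 Herbicidal damage is scored 0 (none) to 100 (complete plant death) two weeks after a simulated field spray. Rates span 15–1000 g ai/ha, delivered in acetone at 187 l/ha. For post-emergence treatments, plants have 2–3 leaves and the spray carries 0.25% v/v non-ionic surfactant.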
structure (smiles),measurement,setting,value
COc1c(Cl)cc(F)c(-n2c(=O)cc(C(F)(F)F)n(C)c2=O)c1N(C(=O)c1ccc(F)c(F)c1)C(=O)c1ccc(F)c(F)c1 [2-49],"Pre-emerge phytotoxicity rating (0-100), crop damage, CORN",[1]; 63 g ai/ha,0
same,"Pre-emerge phytotoxicity rating (0-100), crop damage, CORN",[1]; 250 g ai/ha,15
same,"Pre-emerge phytotoxicity rating (0-100), crop damage, RICE",[2]; 63 g ai/ha,20
same,"Pre-emerge phytotoxicity rating (0-100), crop damage, RICE",[2]; 250 g ai/ha,60
same,"Pre-emerge Herbicidal Activity, phytotoxicity rating (0-100), ECHCG",[3]; 63 g ai/ha,0
same,"Pre-emerge Herbicidal Activity, phytotoxicity rating (0-100), ECHCG",[3]; 250 g ai/ha,10
same,"Pre-emerge Herbicidal Activity, phytotoxicity rating (0-100), CASOB",[4]; 63 g ai/ha,0
same,"Pre-emerge Herbicidal Activity, phytotoxicity rating (0-100), CASOB",[4]; 250 g ai/ha,100
same,"Pre-emerge Herbicidal Activity, phytotoxicity rating (0-100), IPOHE",[5]; 63 g ai/ha,0
same,"Pre-emerge Herbicidal Activity, phytotoxicity rating (0-100), IPOHE",[5]; 250 g ai/ha,90
same,"Pre-emerge Herbicidal Activity, phytotoxicity rating (0-100), SETVI",[6]; 63 g ai/ha,80
same,"Pre-emerge Herbicidal Activity, phytotoxicity rating (0-100), SETVI",[6]; 250 g ai/ha,95
same,"Pre-emerge Herbicidal Activity, phytotoxicity rating (0-100), AMBEL",[7]; 63 g ai/ha,100
same,"Pre-emerge Herbicidal Activity, phytotoxicity rating (0-100), AMBEL",[7]; 250 g ai/ha,100
same,"Pre-emerge Herbicidal Activity, phytotoxicity rating (0-100), DIGSA",[8]; 63 g ai/ha,20
same,"Pre-emerge Herbicidal Activity, phytotoxicity rating (0-100), DIGSA",[8]; 250 g ai/ha,100
same,"Pre-emerge Herbicidal Activity, phytotoxicity rating (0-100), SORHA",[9]; 63 g ai/ha,0
same,"Pre-emerge Herbicidal Activity, phytotoxicity rating (0-100), SORHA",[9]; 250 g ai/ha,0
same,"Pre-emerge Herbicidal Activity, phytotoxicity rating (0-100), ABUTH",[10]; 63 g ai/ha,100
same,"Pre-emerge Herbicidal Activity, phytotoxicity rating (0-100), ABUTH",[10]; 250 g ai/ha,100
same,"Pre-emerge Herbicidal Activity, phytotoxicity rating (0-100), CHEAL",[11]; 63 g ai/ha,100
same,"Pre-emerge Herbicidal Activity, phytotoxicity rating (0-100), CHEAL",[11]; 250 g ai/ha,100
same,phytotoxicity rating ECHCG,[12]; 63 g ai/ha,0
same,phytotoxicity rating ECHCG,[12]; 250 g ai/ha,0
same,phytotoxicity rating AMARE,[13]; 63 g ai/ha,20
same,phytotoxicity rating AMARE,[13]; 250 g ai/ha,40
same,phytotoxicity rating CASOB,[14]; 63 g ai/ha,30
same,phytotoxicity rating CASOB,[14]; 250 g ai/ha,50
same,phytotoxicity rating IPOHE,[15]; 63 g ai/ha,70
same,phytotoxicity rating IPOHE,[15]; 250 g ai/ha,70
same,phytotoxicity rating AMBEL,[16]; 63 g ai/ha,50
same,phytotoxicity rating AMBEL,[16]; 250 g ai/ha,40
same,phytotoxicity rating DIGSA,[17]; 63 g ai/ha,0
same,phytotoxicity rating DIGSA,[17]; 250 g ai/ha,0
same,phytotoxicity rating SORHA,[18]; 63 g ai/ha,0
same,phytotoxicity rating SORHA,[18]; 250 g ai/ha,0
same,phytotoxicity rating ABUTH,[19]; 63 g ai/ha,90
same,phytotoxicity rating ABUTH,[19]; 250 g ai/ha,100
same,phytotoxicity rating CHEAL,[20]; 63 g ai/ha,60
same,phytotoxicity rating CHEAL,[20]; 250 g ai/ha,60
same,phytotoxicity rating CORN,[21]; 63 g ai/ha,0
same,phytotoxicity rating CORN,[21]; 250 g ai/ha,10
same,phytotoxicity rating RICE,[22]; 63 g ai/ha,0
same,phytotoxicity rating RICE,[22]; 250 g ai/ha,10
same,"Pre-emerge Herbicidal Activity, phytotoxicity rating (0-100), AMARE",[23]; 63 g ai/ha,100
same,"Pre-emerge Herbicidal Activity, phytotoxicity rating (0-100), AMARE",[23]; 250 g ai/ha,100
COc1c(Cl)cc(F)c(-n2c(=O)cc(C(F)(F)F)n(C)c2=O)c1NC(=O)c1ccc(-c2ccccc2)cc1 [2-37],"Pre-emerge phytotoxicity rating (0-100), crop damage, CORN",[1]; 63 g ai/ha,0
same,"Pre-emerge phytotoxicity rating (0-100), crop damage, CORN",[1]; 250 g ai/ha,0
same,"Pre-emerge phytotoxicity rating (0-100), crop damage, RICE",[2]; 63 g ai/ha,0
same,"Pre-emerge phytotoxicity rating (0-100), crop damage, RICE",[2]; 250 g ai/ha,0
same,"Pre-emerge Herbicidal Activity, phytotoxicity rating (0-100), ECHCG",[3]; 63 g ai/ha,0
same,"Pre-emerge Herbicidal Activity, phytotoxicity rating (0-100), ECHCG",[3]; 250 g ai/ha,0
same,"Pre-emerge Herbicidal Activity, phytotoxicity rating (0-100), CASOB",[4]; 63 g ai/ha,0
same,"Pre-emerge Herbicidal Activity, phytotoxicity rating (0-100), CASOB",[4]; 250 g ai/ha,0
same,"Pre-emerge Herbicidal Activity, phytotoxicity rating (0-100), IPOHE",[5]; 63 g ai/ha,0
same,"Pre-emerge Herbicidal Activity, phytotoxicity rating (0-100), IPOHE",[5]; 250 g ai/ha,0
same,"Pre-emerge Herbicidal Activity, phytotoxicity rating (0-100), SETVI",[6]; 63 g ai/ha,0
same,"Pre-emerge Herbicidal Activity, phytotoxicity rating (0-100), SETVI",[6]; 250 g ai/ha,0
same,"Pre-emerge Herbicidal Activity, phytotoxicity rating (0-100), AMBEL",[7]; 63 g ai/ha,0
same,"Pre-emerge Herbicidal Activity, phytotoxicity rating (0-100), AMBEL",[7]; 250 g ai/ha,0
same,"Pre-emerge Herbicidal Activity, phytotoxicity rating (0-100), DIGSA",[8]; 63 g ai/ha,0
same,"Pre-emerge Herbicidal Activity, phytotoxicity rating (0-100), DIGSA",[8]; 250 g ai/ha,0
same,"Pre-emerge Herbicidal Activity, phytotoxicity rating (0-100), SORHA",[9]; 63 g ai/ha,0
same,"Pre-emerge Herbicidal Activity, phytotoxicity rating (0-100), SORHA",[9]; 250 g ai/ha,0
same,"Pre-emerge Herbicidal Activity, phytotoxicity rating (0-100), ABUTH",[10]; 63 g ai/ha,0
same,"Pre-emerge Herbicidal Activity, phytotoxicity rating (0-100), ABUTH",[10]; 250 g ai/ha,30
same,"Pre-emerge Herbicidal Activity, phytotoxicity rating (0-100), CHEAL",[11]; 63 g ai/ha,0
same,"Pre-emerge Herbicidal Activity, phytotoxicity rating (0-100), CHEAL",[11]; 250 g ai/ha,50
same,phytotoxicity rating ECHCG,[12]; 63 g ai/ha,0
same,phytotoxicity rating ECHCG,[12]; 250 g ai/ha,0
same,phytotoxicity rating AMARE,[13]; 63 g ai/ha,0
same,phytotoxicity rating AMARE,[13]; 250 g ai/ha,10
same,phytotoxicity rating CASOB,[14]; 63 g ai/ha,0
same,phytotoxicity rating CASOB,[14]; 250 g ai/ha,0
same,phytotoxicity rating IPOHE,[15]; 63 g ai/ha,0
same,phytotoxicity rating IPOHE,[15]; 250 g ai/ha,0
same,phytotoxicity rating AMBEL,[16]; 63 g ai/ha,0
same,phytotoxicity rating AMBEL,[16]; 250 g ai/ha,0
same,phytotoxicity rating DIGSA,[17]; 63 g ai/ha,0
same,phytotoxicity rating DIGSA,[17]; 250 g ai/ha,0
same,phytotoxicity rating SORHA,[18]; 63 g ai/ha,0
same,phytotoxicity rating SORHA,[18]; 250 g ai/ha,0
same,phytotoxicity rating ABUTH,[19]; 63 g ai/ha,0
same,phytotoxicity rating ABUTH,[19]; 250 g ai/ha,30
same,phytotoxicity rating CHEAL,[20]; 63 g ai/ha,0
same,phytotoxicity rating CHEAL,[20]; 250 g ai/ha,20
same,phytotoxicity rating CORN,[21]; 63 g ai/ha,0
same,phytotoxicity rating CORN,[21]; 250 g ai/ha,0
same,phytotoxicity rating RICE,[22]; 63 g ai/ha,0
same,phytotoxicity rating RICE,[22]; 250 g ai/ha,0
same,"Pre-emerge Herbicidal Activity, phytotoxicity rating (0-100), AMARE",[23]; 63 g ai/ha,0
same,"Pre-emerge Herbicidal Activity, phytotoxicity rating (0-100), AMARE",[23]; 250 g ai/ha,30

# Source: patent US6355799B1, “Substituted benzene compounds, process for their preparation, and herbicidal and defoliant compositions containing them” (ISK Americas Incorporated, priority 1997, dated 2002)
